# Values of other authors in patent US7759312B2 (priority 2005, dated 2010).
# What was measured:
# IGF-1 = conditions: acromegaly
# GH = conditions: following a subcutaneous octreotide injection
# [1] = patients with acromegaly
substance,measurement,setting,value
"L-cysteinamide, D-phenylalanyl-L-cysteiny-L-phenylalanyl-D-tryptophyl-L-lysyl-L-threonyl-N-[2-hydroxy-1-(hydroxymethyl)propyl]-,cyclic(2→7)-disulfide; [Octreotide, L-cysteinamide, D-phenylalanyl-L-cysteiny-L-phenylalanyl-D-tryptophyl-L-lysyl-L-threonyl-N-[2-hydroxy-1-(hydroxymethyl)propyl]-,cyclic(2→7)-disulfide; [R—(R*,R*)]]",patients with normalization of IGF-1 levels,IGF-1,up to 60%
same,time to decrease of GH levels,GH,within two hours
same,mean percent of the drug bound,[1],41.2%
same,total body clearance,[1],18 L/h
same,mean peak concentration,"[1]; 100 mcg dose, subcutaneous",2.8 ng/mL
same,time to mean peak concentration,"[1]; 100 mcg dose, subcutaneous",0.7 h
